Results taken from ChEMBL document CHEMBL4265889, “Design and synthesis of tetrahydropyridopyrimidine based Toll-Like Receptor (TLR) 7/8 dual agonists” (Bioorg Med Chem Lett, 2018).
Each block holds one molecule with its values, some of them ahead of it.

Legend:
[1] = biological target: T1, Toll-like receptor 7 (Homo sapiens) (UniProt Q9NYK1); assay: Agonist activity at TLR7 in human PBMC assessed as suppression of HCV replicon replication in human HuH7 luc/neo cells harboring RNA encoding bicistronic expression construct comprising wild type HCV type 1b NS3-NS5B regions exposed to conditioned media from compound treated PBMCs after 24 hrs by luciferase reporter gene assay; type: cell-based
T1 sequence (whole entry): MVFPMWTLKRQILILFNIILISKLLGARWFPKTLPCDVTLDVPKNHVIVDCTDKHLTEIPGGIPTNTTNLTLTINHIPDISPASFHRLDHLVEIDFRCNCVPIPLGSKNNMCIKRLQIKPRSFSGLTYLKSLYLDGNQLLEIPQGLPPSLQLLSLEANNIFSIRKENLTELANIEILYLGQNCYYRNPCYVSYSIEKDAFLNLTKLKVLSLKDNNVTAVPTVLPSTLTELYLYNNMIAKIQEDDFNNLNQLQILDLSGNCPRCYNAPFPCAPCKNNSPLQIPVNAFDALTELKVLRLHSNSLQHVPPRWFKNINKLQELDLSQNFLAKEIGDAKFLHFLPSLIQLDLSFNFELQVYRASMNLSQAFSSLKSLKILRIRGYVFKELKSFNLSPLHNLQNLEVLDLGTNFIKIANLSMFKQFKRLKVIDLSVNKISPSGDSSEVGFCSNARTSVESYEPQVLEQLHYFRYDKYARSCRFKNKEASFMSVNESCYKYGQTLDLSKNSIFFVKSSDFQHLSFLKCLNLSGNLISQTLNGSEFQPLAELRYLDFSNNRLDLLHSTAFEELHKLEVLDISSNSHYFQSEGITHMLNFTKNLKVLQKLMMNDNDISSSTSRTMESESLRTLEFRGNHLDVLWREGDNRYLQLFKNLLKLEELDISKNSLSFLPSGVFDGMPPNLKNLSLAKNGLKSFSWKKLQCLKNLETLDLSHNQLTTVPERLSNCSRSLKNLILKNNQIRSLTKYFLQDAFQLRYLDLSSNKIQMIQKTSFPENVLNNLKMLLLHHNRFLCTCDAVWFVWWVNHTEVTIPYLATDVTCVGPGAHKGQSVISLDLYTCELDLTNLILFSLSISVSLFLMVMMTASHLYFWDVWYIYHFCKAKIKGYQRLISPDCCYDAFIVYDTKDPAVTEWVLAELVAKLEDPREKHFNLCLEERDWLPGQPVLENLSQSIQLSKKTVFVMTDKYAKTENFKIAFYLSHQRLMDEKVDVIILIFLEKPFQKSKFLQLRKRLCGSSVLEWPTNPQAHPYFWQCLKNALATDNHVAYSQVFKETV

[2] = biological target: T2, Toll-like receptor 8 (Homo sapiens) (UniProt Q9NR97); assay: Agonist activity at human TLR8 expressed in HEK293 cells after 6 hrs by NFkappaB-luciferase reporter gene assay; type: cell-based
T2 sequence (whole entry): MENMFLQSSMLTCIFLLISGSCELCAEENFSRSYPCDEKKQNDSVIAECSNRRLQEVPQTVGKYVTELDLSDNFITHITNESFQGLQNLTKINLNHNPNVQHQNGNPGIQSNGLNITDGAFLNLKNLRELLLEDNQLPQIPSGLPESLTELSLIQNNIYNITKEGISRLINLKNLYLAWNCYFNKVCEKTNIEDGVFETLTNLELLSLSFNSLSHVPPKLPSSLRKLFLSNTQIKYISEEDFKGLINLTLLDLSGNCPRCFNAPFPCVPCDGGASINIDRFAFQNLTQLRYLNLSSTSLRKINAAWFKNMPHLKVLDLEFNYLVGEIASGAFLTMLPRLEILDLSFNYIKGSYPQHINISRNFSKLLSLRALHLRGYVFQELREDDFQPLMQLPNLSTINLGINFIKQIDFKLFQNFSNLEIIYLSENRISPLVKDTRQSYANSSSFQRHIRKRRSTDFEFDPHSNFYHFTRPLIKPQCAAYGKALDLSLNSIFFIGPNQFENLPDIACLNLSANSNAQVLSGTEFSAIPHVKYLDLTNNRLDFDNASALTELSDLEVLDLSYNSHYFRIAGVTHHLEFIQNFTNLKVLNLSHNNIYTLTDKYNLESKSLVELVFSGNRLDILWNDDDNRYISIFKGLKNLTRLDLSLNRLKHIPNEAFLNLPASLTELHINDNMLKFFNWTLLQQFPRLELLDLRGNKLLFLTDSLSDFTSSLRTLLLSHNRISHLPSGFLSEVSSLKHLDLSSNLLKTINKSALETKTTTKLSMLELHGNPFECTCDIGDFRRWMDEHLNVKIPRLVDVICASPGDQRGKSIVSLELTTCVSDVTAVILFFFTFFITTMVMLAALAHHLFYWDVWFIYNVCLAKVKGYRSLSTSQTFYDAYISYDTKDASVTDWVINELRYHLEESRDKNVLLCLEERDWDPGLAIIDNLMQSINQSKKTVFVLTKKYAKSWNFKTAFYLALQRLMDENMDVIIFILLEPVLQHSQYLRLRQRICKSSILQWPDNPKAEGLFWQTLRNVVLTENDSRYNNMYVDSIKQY

[3] = Cytotoxicity against HEK293 cells transfected with the CMV-TLR7 construct assessed as reduction in cell viability after 6 hrs by ATPlite assay; type: cell-based; conditions: human
[4] = biological target: T1, Toll-like receptor 7 (Homo sapiens); assay: Agonist activity at human TLR7 expressed in HEK293 cells after 6 hrs by NFkappaB-luciferase reporter gene assay; type: cell-based
[5] = Drug metabolism in mouse liver microsomes at 1 uM after 15 mins; type: ADME, microsome; conditions: read-out: Drug metabolism

Structure (SMILES): CCCCNc1nc(N)nc2c1CN(Cc1ccc(C(F)(F)F)cc1)CC2
- MEC [1]: 0.54 µM
- MEC [2]: 0.23 µM
- CC50 at 6 h [3]: > 24 µM
- MEC [4]: 2.8 µM

Structure (SMILES): CCCCNc1nc(N)nc2c1CN(Cc1ccc(C(C)(C)C)cc1)CC2
- MEC [1]: 2.79 µM
- MEC [2]: 0.66 µM
- CC50 at 6 h [3]: > 24 µM
- MEC [4]: 19 µM

- MEC [2]: 1.4 µM
- MEC [4]: 1.5 µM
Structure (SMILES): CCCCNc1nc(N)nc2c1CN(C(=O)c1ccccc1)CC2
- CC50 at 6 h [3]: > 24 µM

- MEC [2]: 0.3 µM
- MEC [4]: 0.1 µM
Structure (SMILES): CCOCc1nc2c(N)nc3ccccc3c2n1CC(C)(C)O

Structure (SMILES): CCCCNc1nc(N)nc2c1CN(Cc1ccco1)CC2
- MEC [1]: 0.07 µM
- MEC [2]: 0.08 µM
- CC50 at 6 h [3]: > 24 µM
- MEC [4]: 3.7 µM

- MEC [2]: 7.2 µM
- MEC [4]: > 25 µM
Structure (SMILES): CCCCNc1nc(N)nc2c1CNCC2
- CC50 at 6 h [3]: > 24 µM

Structure (SMILES): CCCCNc1nc(N)nc2c1CN(Cc1cccc3ccccc13)CC2
- MEC [1]: 0.43 µM
- MEC [2]: 0.43 µM
- CC50 at 6 h [3]: > 24 µM
- MEC [4]: 1.3 µM

Structure (SMILES): CCCCNc1nc(N)nc2c1CN(C(=O)c1cscn1)CC2
- MEC [1]: 0.17 µM
- MEC [2]: 0.5 µM
- CC50 at 6 h [3]: > 24 µM
- MEC [4]: 1.2 µM

- MEC [2]: 0.4 µM
- MEC [4]: 11 µM
Structure (SMILES): CCCCNc1nc(N)nc2c1CCN(Cc1ccccc1)C2
- CC50 at 6 h [3]: > 24 µM

Structure (SMILES): CCCCNc1nc(N)nc2c1CN(C(=O)c1cnc(N)s1)CC2
- MEC [1]: 0.38 µM
- MEC [2]: 4.4 µM
- CC50 at 6 h [3]: > 24 µM
- MEC [4]: 2.1 µM

Structure (SMILES): CCCCNc1nc(N)nc2c1CN(C(=O)CC)CC2
- MEC [1]: 0.53 µM
- MEC [2]: 0.4 µM
- CC50 at 6 h [3]: > 24 µM
- MEC [4]: 2.3 µM

Structure (SMILES): CCCCNc1nc(N)nc2c1CN(C(=O)c1cccs1)CC2
- MEC [1]: 0.07 µM
- MEC [2]: 0.4 µM
- CC50 at 6 h [3]: > 24 µM
- MEC [4]: 0.2 µM
- metabolised at 0.25 h, 1 µM [5]: 99%

Structure (SMILES): CCCCNc1nc(N)nc2c1CN(Cc1c(Cl)cccc1Cl)CC2
- MEC [1]: 0.19 µM
- MEC [2]: 0.14 µM
- CC50 at 6 h [3]: > 24 µM
- MEC [4]: 2.4 µM

- MEC [2]: 0.5 µM
- MEC [4]: 4.9 µM
Structure (SMILES): CCCCNc1nc(N)nc2c1CN(C(C)=O)CC2
- CC50 at 6 h [3]: > 24 µM

Structure (SMILES): CCCCNc1nc(N)nc2c1CN(Cc1cc(F)cc(F)c1)CC2
- MEC [1]: 0.53 µM
- MEC [2]: 0.23 µM
- CC50 at 6 h [3]: > 24 µM
- MEC [4]: 3.5 µM

Structure (SMILES): CCCCNc1nc(N)nc2c1CN(C(=O)c1csc(N)n1)CC2
- MEC [1]: 1.05 µM
- MEC [2]: 6.9 µM
- CC50 at 6 h [3]: > 24 µM
- MEC [4]: 8 µM

- MEC [2]: 0.8 µM
- MEC [4]: 20 µM
Structure (SMILES): CCCCNc1nc(N)nc2c1CCN(S(C)(=O)=O)C2
- CC50 at 6 h [3]: > 24 µM

Structure (SMILES): CCCCNc1nc(N)nc2c1CN(C(=O)c1cnccn1)CC2
- MEC [1]: 2.38 µM
- MEC [2]: 2.2 µM
- CC50 at 6 h [3]: > 24 µM
- MEC [4]: 3.7 µM

Structure (SMILES): CCCCNc1nc(N)nc2c1CN(C(=O)c1cc(C)on1)CC2
- MEC [1]: 0.22 µM
- MEC [2]: 0.4 µM
- CC50 at 6 h [3]: > 24 µM
- MEC [4]: 0.8 µM

Structure (SMILES): CCCCNc1nc(N)nc2c1CN(Cc1ccccc1Cl)CC2
- MEC [1]: 0.15 µM
- MEC [2]: 0.05 µM
- CC50 at 6 h [3]: > 24 µM
- MEC [4]: 1.5 µM

Structure (SMILES): CCCCNc1nc(N)nc2c1CN(Cc1ccncc1)CC2
- MEC [1]: 0.5 µM
- MEC [2]: 0.29 µM
- CC50 at 6 h [3]: > 24 µM
- MEC [4]: 5.2 µM

Structure (SMILES): CCCCNc1nc(N)nc2c1CN(Cc1cccc(Cl)c1Cl)CC2
- MEC [1]: 0.25 µM
- MEC [2]: 0.18 µM
- CC50 at 6 h [3]: > 24 µM
- MEC [4]: 1.5 µM

- MEC [2]: 0.2 µM
- MEC [4]: 10 µM
Structure (SMILES): CCCCNc1nc(N)nc2c1CCN(C)C2
- CC50 at 6 h [3]: > 24 µM
